# Assay results: patent US9273095B2, “Antibiotic peptide and preparation method therefor and application therefor” (priority 2011, dated 2016)
# Read-outs that look alike come from different tables or passages of the source. Non-standard residues stand in square brackets, D forms with d. Residues, ends and D or L forms follow the SMILES beside them.
# How the values were obtained:
# Typhoid bacillus H901 = assay: microbe, parasite or virus in culture; type: cell-based
# How it was run: (§1)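 Two-fold agar dilution method on MH agar (0.03–128 μg/ml final), 10^4CFU/point, 18 hours at 35° C.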
# Staphylococcus aureus = assay: microbe, parasite or virus in culture; type: cell-based
# How it was run: as §1
# [1] = test system: Staphylococcus epidermidis; assay: microbe, parasite or virus in culture; type: cell-based
# How it was run: as §1
# Pseudomonas aeruginosa = assay: microbe, parasite or virus in culture; type: cell-based
# How it was run: as §1
# Shigella sonnei = assay: microbe, parasite or virus in culture; type: cell-based; conditions: Shigella sonnei strains 51592
# How it was run: as §1
# Shigella = assay: microbe, parasite or virus in culture; type: cell-based
# How it was run: as §1
# Escherichia coli = assay: microbe, parasite or virus in culture; type: cell-based
# How it was run: as §1
# Shigella flexneri = assay: microbe, parasite or virus in culture; type: cell-based
# How it was run: as §1
# candida krusei = assay: microbe, parasite or virus in culture; type: cell-based
# Text: • (1) Test strains: monilia albicans (candida albicans), candida glabrata, candida krusei, candida tropicalis, aspergillus fumigatus and flavous. (2) Quality control strains: candida krusei JLC30366 (ATCC6258). Antimicrobial peptides PL-13 (SEQ ID NO: 1) under test are supplied by Jiangsu ProteLight Pharmaceutical & Biotechnology Co., LTD. […] (1) The bacterial strains which preserved on PDA slant are respectively inoculated onto PDA plate and slant medium. Activation of bacterial strains is conducted at a humidity level of 60% and 25° C. (for aspergillus) or 37° C. (for candida). (2) 0.9% stroke-physiological saline solution comprising 0.5% Tween-80 is used to prepare bacterial suspension for experiment. Hemocytometer is utilized to adjust concentration of the bacterial suspension to 1-3×10^6 CFU/ml (0.5 McFarland units) to make stock solution in reserve at -20° C. During the sensitivity test, the RPMI-1640 liquid medium is diluted 1000 times to 1-3×10^3 CFU/ml. (3) The RPMI-1640 liquid is utilized as diluent to 10-fold dilute stock solution of peptides. […] The eleventh orifice is used as living control orifice, while the twelfth one as blank control. (4) The RPMI-1640 liquid is utilized as diluent to 10-fold dilute stock solution of FCZ and ICZ. […] Ditto for other operations.
# [2] = RP-HPLC temperature profiling: hydrophobicity and self-association; type: physicochemical; conditions: for Hydrophobicity tR5: retention time in RP-HPLC at pH 2, 5° C.; for Hydrophobicity tR80: retention time in RP-HPLC at pH 2, 80° C.
# Method: Peptides are analyzed on an Agilent 1200 series liquid chromatograph (Little Falls, Del.). Runs are performed on a Zorbax 300 SB-C8 column (150×4.6 mm I.D.; 5 μm particle size, 300 Å pore size) from Agilent Technologies using linear AB gradient (1% acetonitrile/min) and a flow rate of 1 ml/min, where solvent A is 0.05% aqueous TFA, pH 2 and solvent B is 0.05% TFA in acetonitrile.
# We further use temperature profiling during RP-HPLC to determine the self-association ability of various analogs of PL-13 (SEQ ID NO: 1) which would occur through interaction of the non-polar faces of these amphipathic peptides α-helices. We use 50% TFE aqueous acetonitrile and hydrophobic conditions in the reversed-phase column (hydrophobic stationary phase and the hydrophobic organic solvent in the mobile phase) since the hydrophobic environment of a reversed-phase column also could induce α-helical structure. Since its introduction, the technique of RP-HPLC temperature profiling has been applied on several types of molecules, including cyclic β-sheet peptides, monomeric α-helices and α-helices that dimerize, as well as α-helices that dimerize to form coiled-coils. Although peptides are eluted from a reversed-phase column mainly by an adsorption/desorption mechanism, even a peptide strongly bound to a hydrophobic stationary phase will partition between the matrix and the mobile phase when the acetonitrile content becomes high enough during gradient elution. In summary, the mechanism is based on four assumptions: (i) at low temperature, just as an amphipathic α-helical peptide is able to dimerize in aqueous solution (through its hydrophobic, non-polar face), it will dimerize in solution during partitioning in reversed-phase chromatography; (ii) at higher temperatures, the monomer-dimer equilibrium favors the monomer as the dimer is disrupted; (iii) at sufficiently high temperatures, only monomer is present in solution; and (iv) peptide is always bound in its monomeric helical form to the hydrophobic stationary phase, i.e., the dimer can only be present in solution and disruption of the dimer is required for rebinding to the RP-HPLC matrix.
# ([θ]222=−3,950). Since peptide C is a monomeric random coil peptide in both aqueous and hydrophobic media, its retention behavior over the temperature range 5-80° C. represents only general temperature effects on peptide retention behavior, i.e., a linear decrease in peptide retention time with increasing temperature due to greater solute diffusivity and enhanced mass transfer between the stationary and mobile phases at higher temperatures. Thus, after normalization to the retention times of peptide C, the retention behavior of the peptides only represents peptide self-association ability. Note that the higher the PA value, the greater the self-association ability. The order of peptide self-association ability of the three pairs of peptide enantiomers is identical to the order of peptide hydrophobicity. Apart from the decrease in retention time due to the general temperature effects noted above, destruction of the α-helix will also occur with increasing temperature, resulting in reduced retention times as the peptides become increasingly random coils.
# The retention time data for the peptides is shown in Table 6 which records retention times at 5° C., the maximal retention times and retention times at 80° C. during the temperature profiling. Temperatures of 5-80° C. are the lower and upper temperature limits of temperature profiling in RP-HPLC, representing polymerization of the peptides at 5° C. and the monomerization of peptides at 80° C. due to denaturation of peptides by high temperature and dissociation of the polymers. The maximal retention times represent the threshold points at which peptides totally transform from polymeric to monomeric form. […]
# [3] = 08-49(MSSA) Meticillin susceptible staphylococcus aureus
# [4] = 08-52(MRSA) Methicillin-resistant staphylococcus aureus
# [5] = Staphylococcus aureus ATCC25923
# [6] = Staphylococcus aureus ATCC29213
# [7] = strain 15 (listed under Staphylococcus aureus)
# [8] = 08-17 (MSSE) Meticillin susceptible staphylococcus epidermidis
# [9] = 08-18 (MRSE) Methicillin-resistant staphylococcus epidermidis
# [10] = (MRSE) Methicillin-resistant Staphylococcus epidermidis ATCC12228
# [11] = Pseudomonas aeruginosa TCC27853
# [12] = strain 17 (listed under Pseudomonas aeruginosa)
molecule,measurement,setting,value
CC[C@@H](C)[C@@H](NC(=O)[C@@H](CCCCN)NC(=O)[C@@H](CO)NC(=O)[C@@H](Cc1ccccc1)NC(=O)[C@@H](CC(C)C)NC(=O)[C@@H](CCCCN)NC(=O)[C@@H](CCC(=O)O)NC(=O)[C@@H](CC(C)C)NC(=O)[C@@H](CCCNC(=N)N)NC(=O)[C@@H](CCCCN)NC(=O)[C@@H](Cc1ccccc1)NC(C)=O)C(=O)N[C@H](Cc1c[nH]c2ccccc12)C(=O)N[C@H](CC(N)=O)C(=O)N[C@H](Cc1c[nH]c2ccccc12)C(=O)N[C@H](CCCCN)C(N)=O [PL-17] (Ac-[dF][dK][dR][dL][dE][dK][dL][dF][dS][dK][dI][dW][dN][dW][dK]-NH2),MIC,Typhoid bacillus H901,0.7 µM
same,MIC,Staphylococcus aureus; [3],0.7 µM
same,MIC,Staphylococcus aureus; [4],5.3 µM
same,MIC,Staphylococcus aureus; [5],0.3 µM
same,MIC,Staphylococcus aureus; [6],0.3 µM
same,MIC,Staphylococcus aureus; [7],0.3 µM
same,MIC,[1]; [8],1.0 µM
same,MIC,[1]; [9],1.0 µM
same,MIC,[1]; [10],1.0 µM
same,MIC,Pseudomonas aeruginosa; [11],1.3 µM
same,MIC,Pseudomonas aeruginosa; [12],2.7 µM
same,MIC,Shigella sonnei,0.3 µM
same,MIC,Shigella,0.3 µM
same,MIC,Escherichia coli; 272(TEM-88),0.3 µM
same,MIC,Escherichia coli; 274 (TEM-15),0.3 µM
same,MIC,Escherichia coli; 276 (TEM-52),0.7 µM
same,MIC,Shigella flexneri,0.3 µM
same,Minimal inhibitory concentration,candida krusei; JLC 30366 candida krusei,8 µg/mL
same,Minimal inhibitory concentration,candida krusei; JLC 30383 candida krusei,8 µg/mL
Ac-FKRLEKLFSKIWNWK-NH2 [PL-12],Hydrophobicity tR5,[2],38.04 min
same,Hydrophobicity tR80,[2],36.10 min
same,MIC,Typhoid bacillus H901,5.3 µM
same,MIC,Staphylococcus aureus; [3],0.7 µM
same,MIC,Staphylococcus aureus; [4],1.3 µM
same,MIC,Staphylococcus aureus; [5],1.3 µM
same,MIC,Staphylococcus aureus; [6],1.3 µM
same,MIC,Staphylococcus aureus; [7],1.3 µM
same,MIC,[1]; [8],2.7 µM
same,MIC,[1]; [9],1.3 µM
same,MIC,[1]; [10],1.3 µM
same,MIC,Pseudomonas aeruginosa; [11],5.3 µM
same,MIC,Pseudomonas aeruginosa; [12],2.7 µM
same,MIC,Shigella sonnei,2.7 µM
same,MIC,Shigella,1.7 µM
same,MIC,Escherichia coli; 272(TEM-88),0.7 µM
same,MIC,Escherichia coli; 274 (TEM-15),1.3 µM
same,MIC,Escherichia coli; 276 (TEM-52),1.3 µM
same,MIC,Shigella flexneri,2.7 µM
same,Minimal inhibitory concentration,candida krusei; JLC 30366 candida krusei,8 µg/mL
same,Minimal inhibitory concentration,candida krusei; JLC 30383 candida krusei,16 µg/mL
Ac-FKKLKKLFSKLWNWK-NH2 [PL-13],tR(min) 5° C.,"[2]; RP-HPLC temperature profiling, 5° C.",35.75 min
same,tR(min) 80° C.,"[2]; RP-HPLC temperature profiling, 80° C.",33.37 min
same,"PA (min), association parameter","[2]; maximal normalized retention time difference within 5-80° C., self-association ability",0.56 min
same,tR(min) Max,[2]; maximal retention time during temperature profiling 5-80° C.,35.75 min
same,ΔtR(X-Peptide C)(min) 5° C.,"[2]; retention time difference to control peptide C at 5° C., relative hydrophobicity",13.19 min
same,ΔtR(X-Peptide C)(min) 80° C.,"[2]; retention time difference to control peptide C at 80° C., relative hydrophobicity",13.45 min
same,Hydrophobicity tR5,[2],35.75 min
same,Hydrophobicity tR80,[2],33.37 min
same,MIC,Typhoid bacillus H901,1.3 µM
same,MIC,Staphylococcus aureus,0.7 µM
same,MIC,Staphylococcus aureus; [3],2.7 µM
same,MIC,Staphylococcus aureus; [4],2.7 µM
same,MIC,Pseudomonas aeruginosa,1.3 µM
same,MIC,Shigella sonnei,0.7 µM
same,MIC,Shigella,0.7 µM
same,MIC,Escherichia coli; 08-5 (ESBLs) Extended Spectyumβ-lactamase,0.7 µM
same,MIC,Shigella flexneri,0.7 µM
